Where a name gives a salt, the structure may show the parent alone. Read-outs that look alike come from different tables or passages of the source.
What was measured:
[1] = cited from earlier work; for Log P: Table 1; for LogP: Table 4
[2] = In vitro dissolution (drug release) from 400 mg matrix tablets, USP apparatus II, SGF or SIF; type: physicochemical; settings: for T50 values in SIF, PAA/Car: PAA/Carrageenan (1:1) formulation, 25% of active; for T50: negatively charged drugs from negatively charged PAA/PEO matrix
[3] = cited from earlier work
[4] = In vitro dissolution (drug release) from 400 mg matrix tablets, USP apparatus II, SGF or SIF; type: physicochemical; design: T50 (time during which 50% of drug has been released from matrix): unit not given here; settings: for T50 (time during which 50% of drug has been released from matrix): 10 wt. % drug, 400 mg PAA/PEO (1:1.5) tablet, modified SIF; for T50 values in SIF, PAA/PEO: PAA/PEO (1:1.5) formulation, 10% of active; for T10 / T50: 1:1.5 PAA/PEO excipient mixture; for T50 values in SIF, PAA/PEO / T10 / T50 in SIF / T50: SIF; for Comments (interaction with PAA): Table 2; for T50 in SGF: modified SGF
Description: Several different formulations with different drugs were manufactured. Drugs were manually mixed with the excipients in a mortar and compressed into 400 mg tablets using Carver press or Oil press with 1000 lb applied force. Flat face 11 mm round tooling was used.
In vitro drug release was measured by in vitro dissolution experiments. […] Drug release was evaluated with either Simulated Gastric Fluid (SGF), pH=1.2 or Simulated Intestinal Fluid (SIF), pH=7.5, both prepared according to USP without enzyme added. Tablet sinkers were applied in all experiments. At predetermined time intervals, a sample was withdrawn from the vessel and assayed using a UV-VIS spectrophotometer at a wavelength of 240 nm.
The release behavior of a large group of basic highly soluble drugs (10 wt. % of drug ) from a directly compressed matrix tablet using 1:1.5 polyacrylic acid/polyethylene oxide (PAA/PEO) mix as excipient was studied under modified Simulated Intestinal Fluid (SIF) conditions.

[5] = Table 1, model drug characteristics
[6] = Table 2, positively charged drugs

| Molecule | Log P [1] | T50 values in SIF, PAA/Car [2] | Solubility [3, 5] | T50 (time during which 50% of drug has been released from matrix) [4] | T50 values in SIF, PAA/PEO [4] | further results |
| --- | --- | --- | --- | --- | --- | --- |
| CCCCOc1cc(C(=O)OCCN(CC)CC)ccc1N [Benoxinate HCl] | 4.0 | 23 | 1000 mg/mL | 22 | 22 | LogP [1]: 5.2 |
| CC(C)(C)CC(C)(C)c1ccc(OCCOCC[N+](C)(C)Cc2ccccc2)cc1 [Benzethonium Chloride] |  |  |  |  |  | T10 [4]: 25 h; Comments (interaction with PAA) [4]: Forms insoluble |
| C[N+](C)(C)CC(=O)O [Betaine Hydrochloride] |  |  |  |  |  | T50 in SIF ([4]; 1:1.5 PAA/PEO): 22 h; T50 in SGF ([4]; 1:1.5 PAA/PEO): 4 h |
| C[N+](C)(C)CC(=O)O [Betaine] |  |  |  |  |  | Solubility [3, 6]: 650 mg/mL; T10 [4]: 6 h; T50 [4]: 22 h |
| CC(C[N+](C)(C)C)OC(N)=O (centres unmarked) [Bethanechol Chloride] |  |  |  |  |  | T10 [4]: 10 h; T50 [4]: 55 h; T50 in SIF ([4]; 1:1.5 PAA/PEO): 55 h; T50 in SGF ([4]; 1:1.5 PAA/PEO): 24 h; Comments (interaction with PAA) [4]: Forms insoluble |
| CC1OC2(CS1)CN1CCC2CC1 (centres unmarked) [Cevimeline HCl] | 1.1 |  | 766 mg/mL | 4.5 |  |  |
| CN(C)CCCN1c2ccccc2Sc2ccc(Cl)cc21 [Chlorpromazine HCl] |  |  | 400 mg/mL | 56 |  |  |
| COc1ccc([C@@H]2Sc3ccccc3N(CCN(C)C)C(=O)[C@@H]2OC(C)=O)cc1 [Diltiazem HCl] | 3.6 | 21 | 800 mg/mL | 18 | 18 | LogP [1]: 3.6; T50 in SIF ([4]; 1:1.5 PAA/PEO): 18 h; T50 in SGF ([4]; 1:1.5 PAA/PEO): 8 h |
| CN(C)CCOC(c1ccccc1)c1ccccc1 [Diphenhydramine HCl] |  | 8 |  | 15 | 15 |  |
| CN(C)CCOC(C)(c1ccccc1)c1ccccn1 (centres unmarked) [Doxylamine Succinate] | 2.5 | 22 | 1000 mg/mL | 23 | 23 | LogP [1]: 2.5 |
| CN(C)CCCN1c2ccccc2CCc2ccccc21 [Imipramine HCl] |  |  | 500 mg/mL | 58 |  |  |
| CNS(=O)(=O)CCc1ccc2[nH]cc(C3CCN(C)CC3)c2c1 [Naratriptan HCl] |  | 25 |  |  | 22 | LogP [1]: 1.8 |
| CN[C@@H](C)[C@@H](O)c1ccccc1 [Pseudoephedrine HCl] | 1.0 |  |  | 4 |  |  |
| Cc1ncc(CO)c(CO)c1O.Cl [Pyridoxine HCl] | −1.9 |  |  | 4 |  |  |
| CNC(=C[N+](=O)[O-])NCCSCc1ccc(CN(C)C)o1 [Ranitidine HCl] | 1.3 | 15 | ˜200 mg/ml | 11 | 11 | LogP [1]: 1.3 |
| CCOc1ccccc1OCCN[C@H](C)Cc1ccc(OC)c(S(N)(=O)=O)c1 [Tamsulosin HCl] |  | 25 |  |  | 26 | LogP [1]: 2.24 |
| Cc1ncc(C[n+]2csc(CCO)c2C)c(N)n1 [Thiamine HCl] |  | 7.5 |  |  | 7.5 | Solubility [3, 6]: 1000 mg/mL; T10 [4]: 1 h; T50 [4]: 7.5 h; Release behaviour (in words) ([4]; permanently positively charged molecules, 1:1.5 PAA/PEO): slightly fast release |
| COc1cccc(C2(O)CCCCC2CN(C)C)c1 (centres unmarked) [Tramadol HCl] | 2.5 |  | >1000 mg/mL | 31 |  | T50 in SIF ([4]; 1:1.5 PAA/PEO): 31 h; T50 in SGF ([4]; 1:1.5 PAA/PEO): 8 h |
| Cc1nnc(SCC2=C(C(=O)[O-])N3C(=O)[C@@H](NC(=O)Cn4cnnn4)[C@H]3SC2)s1.[Na+] [sodium cefazoline] |  |  |  |  |  | T50 [2]: about 5 hours |
| CO[C@@]1(NC(=O)CSCC#N)C(=O)N2C(C(=O)[O-])=C(CSc3nnnn3C)CS[C@@H]21.[Na+] [sodium cefmatazole] |  |  |  |  |  | T50 [2]: about 5 hours |
| Amitriptuline HCl |  |  |  | 57 |  |  |
| Diphenhydramine Citrate |  |  |  |  |  | T50 in SIF ([4]; 1:1.5 PAA/PEO): 25 h; T50 in SGF ([4]; 1:1.5 PAA/PEO): 12 h |

Source: patent US20040091528A1, “Soluble drug extended release system” (Yamanouchi Pharma Technologies, Inc., priority 2002, published 2004)
